From patent publication US20020137929A1, “1 - (3-heterocyclylphenyl) isothiourea, -isourea, -guanidine and -amidine herbicidal agents” (Intellectual Property Department, BASF Aktiengesellschaft, priority 1998, published 2002)

Legend:
[1] = test system: CYPIR (Rice Flatsedge); assay: Postemergence weed control under flooded paddy conditions; type: in vivo, Cyperus iria; conditions: postemergence weeds
How it was run: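 Flood-water application, about 0.0313–0.500 kg/ha a.i. in aqueous/acetone 50/50 v/v; water depth 1.5–3 cm throughout. Weeds 3–5 cm, rice 1.5–2.5 leaf. Greenhouse; 0–9 visual rating vs control at 3–4 wk.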

[2] = test system: AMBEL (Ragweed, Common); assay: Postemergence herbicidal evaluation; type: in vivo, Ambrosia artemisifolia; conditions: for AMBEL herbicidal rating: postemergence
How it was run: (§1)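 Visual 0-9 injury score (stand, vigor, malformation, size, chlorosis, appearance vs untreated) taken four to five weeks post-spray, averaged across repeat tests. Test plants about two weeks old; foliar spray of acetone/water (1:1) with 0.5% surfactant delivering ~0.0156-0.500 kg active/ha.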

[3] = test system: SAGPY (Arrowhead (Pygmaea)); assay: Preemergence weed control under flooded paddy conditions; type: in vivo, Sagittaria pygmaea; conditions: rated 3-4 weeks after treatment
How it was run: (§2)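 Herbicidal effect is scored visually on a 0-9 scale against an untreated control, three to four weeks after compounds are pipetted into the flood water (1.5 to 3 cm deep) over seeds planted in silt loam at 0.5 cm depth. Rates: about 0.0313 to 0.500 kg/ha.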

[4] = test system: ECHCG (Barnyardgrass); assay: Preemergence herbicidal evaluation; type: in vivo, Echinochloa crus-galli; conditions: rated 4-5 weeks after treatment; for ECHCG rating: preemergence, 0-9 scale
How it was run: (§3)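 Visual 0-9 rating vs control (stand, vigor, malformation, size, chlorosis, overall appearance), scored 4-5 wk after spraying. Seeded soil cups were treated preemergence with compound in aqueous acetone, ~0.0156-0.500 kg/ha equivalent.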

[5] = test system: GLXMAW (Soybean, Williams); assay: Preemergence herbicidal evaluation; type: in vivo, Glycine max, (L.) Merr. cv Williams; conditions: rated 4-5 weeks after treatment; for GLXMAW rating: preemergence, 0-9 scale
How it was run: as §3

[6] = test system: ZEAMX (Corn, Field); assay: Preemergence herbicidal evaluation; type: in vivo, Zea mays; conditions: rated 4-5 weeks after treatment; for ZEAMX rating: preemergence, 0-9 scale
How it was run: as §3

[7] = test system: IPOHE (Morningglory, Ivyleaf); assay: Preemergence herbicidal evaluation; type: in vivo, Ipomoea hederacea; conditions: rated 4-5 weeks after treatment; for IPOHE rating: preemergence, 0-9 scale
How it was run: as §3

[8] = test system: GALAP (Galium); assay: Postemergence herbicidal evaluation; type: in vivo, Galium aparine; conditions: for GALAP herbicidal rating: postemergence
How it was run: as §1

[9] = test system: CASOB (Sicklepod); assay: Preemergence herbicidal evaluation; type: in vivo, Cassia obtusifolia; conditions: rated 4-5 weeks after treatment; for CASOB rating: preemergence, 0-9 scale
How it was run: as §3

[10] = test system: TRZAWR (Wheat, Winter, cv Riband); assay: Preemergence herbicidal evaluation; type: in vivo, Triticum aestivum; conditions: rated 4-5 weeks after treatment; for TRZAWR rating: preemergence, 0-9 scale
How it was run: as §3

[11] = test system: ABUTH (Velvetleaf); assay: Preemergence herbicidal evaluation; type: in vivo, Abutilon theophrasti; conditions: rated 4-5 weeks after treatment; for ABUTH rating: preemergence, 0-9 scale
How it was run: as §3

[12] = test system: MOOVA (Monochoria); assay: Preemergence weed control under flooded paddy conditions; type: in vivo, Monochoria vaginalis; conditions: rated 3-4 weeks after treatment
How it was run: as §2

[13] = test system: CASOB (Sicklepod); assay: Postemergence herbicidal evaluation; type: in vivo, Cassia obtusifolia; conditions: for CASOB herbicidal rating: postemergence
How it was run: as §1

[14] = test system: IPOHE (Morningglory, Ivyleaf); assay: Postemergence herbicidal evaluation; type: in vivo, Ipomoea hederacea; conditions: for IPOHE herbicidal rating: postemergence
How it was run: as §1

Cn1c(C(F)(F)F)cc(=O)n(-c2cc(N=C3SCC(=O)N3CC(=O)NS(C)(=O)=O)c(Cl)cc2F)c1=O [Compound 38, 2-{{2-Chloro-5-[3,6-dihydro-3-methyl-2,6-dioxo-4-(trifluoromethyl)-1(2H)-pyrimidinyl]-4-fluoro-phenyl}imino}-N-(methylsulfonyl)-4-oxo-3-thiazolidineacetamide]
0.0: Herbicidal rating SAGPY ([3]; 0.0313 kg/ha) | Preemergence herbicidal rating ECHCG ([4]; rate 0.0313 kg/ha) | Preemergence herbicidal rating ECHCG ([4]; rate 0.0625 kg/ha) | Preemergence herbicidal rating ECHCG ([4]; rate 0.1250 kg/ha) | Preemergence herbicidal rating GLXMAW ([5]; rate 0.0313 kg/ha) | Preemergence herbicidal rating ZEAMX ([6]; rate 0.0313 kg/ha) | Preemergence herbicidal rating ZEAMX ([6]; rate 0.0625 kg/ha) | Preemergence herbicidal rating ZEAMX ([6]; rate 0.1250 kg/ha) | Preemergence herbicidal rating IPOHE ([7]; rate 0.0313 kg/ha) | Postemergence herbicidal rating GALAP ([8]; Rate 0.0156 kg/ha) | Preemergence herbicidal rating CASOB ([9]; rate 0.0313 kg/ha) | Preemergence herbicidal rating CASOB ([9]; rate 0.0625 kg/ha) | Preemergence herbicidal rating CASOB ([9]; rate 0.1250 kg/ha) | Preemergence herbicidal rating TRZAWR ([10]; rate 0.0313 kg/ha) | Preemergence herbicidal rating TRZAWR ([10]; rate 0.0625 kg/ha) | Postemergence herbicidal rating CASOB ([13]; Rate 0.0156 kg/ha)
1.0: Preemergence herbicidal rating ECHCG ([4]; rate 0.2500 kg/ha) | Postemergence herbicidal rating GALAP ([8]; Rate 0.0313 kg/ha) | Postemergence herbicidal rating CASOB ([13]; Rate 0.0313 kg/ha)
8.0: Postemergence herbicidal rating GALAP ([8]; Rate 0.2500 kg/ha)
9.0: Postemergence herbicidal rating AMBEL ([2]; Rate 0.1250 kg/ha) | Postemergence herbicidal rating AMBEL ([2]; Rate 0.2500 kg/ha) | Herbicidal rating SAGPY ([3]; 0.2500 kg/ha) | Preemergence herbicidal rating IPOHE ([7]; rate 0.2500 kg/ha) | Preemergence herbicidal rating ABUTH ([11]; rate 0.0313 kg/ha) | Preemergence herbicidal rating ABUTH ([11]; rate 0.0625 kg/ha) | Preemergence herbicidal rating ABUTH ([11]; rate 0.1250 kg/ha) | Preemergence herbicidal rating ABUTH ([11]; rate 0.2500 kg/ha) | Herbicidal rating MOOVA ([12]; 0.0313 kg/ha) | Herbicidal rating MOOVA ([12]; 0.0625 kg/ha) | Herbicidal rating MOOVA ([12]; 0.1250 kg/ha) | Herbicidal rating MOOVA ([12]; 0.2500 kg/ha) | Postemergence herbicidal rating IPOHE ([14]; Rate 0.0156 kg/ha) | Postemergence herbicidal rating IPOHE ([14]; Rate 0.0313 kg/ha) | Postemergence herbicidal rating IPOHE ([14]; Rate 0.0625 kg/ha) | Postemergence herbicidal rating IPOHE ([14]; Rate 0.1250 kg/ha) | Postemergence herbicidal rating IPOHE ([14]; Rate 0.2500 kg/ha)
4.0: Herbicidal rating SAGPY ([3]; 0.1250 kg/ha) | Preemergence herbicidal rating ZEAMX ([6]; rate 0.2500 kg/ha) | Preemergence herbicidal rating IPOHE ([7]; rate 0.0625 kg/ha)
6.0: Preemergence herbicidal rating GLXMAW ([5]; rate 0.2500 kg/ha)
3.0: Herbicidal rating CYPIR ([1]; rate 0.0313 kg/ha, 3-4 weeks after treatment) | Herbicidal rating CYPIR ([1]; rate 0.0625 kg/ha, 3-4 weeks after treatment) | Postemergence herbicidal rating AMBEL ([2]; Rate 0.0156 kg/ha) | Herbicidal rating SAGPY ([3]; 0.0625 kg/ha) | Postemergence herbicidal rating GALAP ([8]; Rate 0.0625 kg/ha) | Postemergence herbicidal rating GALAP ([8]; Rate 0.1250 kg/ha) | Preemergence herbicidal rating CASOB ([9]; rate 0.2500 kg/ha) | Postemergence herbicidal rating CASOB ([13]; Rate 0.1250 kg/ha) | Postemergence herbicidal rating CASOB ([13]; Rate 0.2500 kg/ha)
2.0: Preemergence herbicidal rating GLXMAW ([5]; rate 0.0625 kg/ha) | Preemergence herbicidal rating GLXMAW ([5]; rate 0.1250 kg/ha) | Preemergence herbicidal rating TRZAWR ([10]; rate 0.1250 kg/ha) | Postemergence herbicidal rating CASOB ([13]; Rate 0.0625 kg/ha)
7.0: Preemergence herbicidal rating TRZAWR ([10]; rate 0.2500 kg/ha)
5.0: Herbicidal rating CYPIR ([1]; rate 0.1250 kg/ha, 3-4 weeks after treatment) | Herbicidal rating CYPIR ([1]; rate 0.2500 kg/ha, 3-4 weeks after treatment) | Postemergence herbicidal rating AMBEL ([2]; Rate 0.0313 kg/ha) | Postemergence herbicidal rating AMBEL ([2]; Rate 0.0625 kg/ha) | Preemergence herbicidal rating IPOHE ([7]; rate 0.1250 kg/ha)

CN1C(=O)C(CC(N)=O)SC1=Nc1cc(-n2c(=O)cc(C(F)(F)F)n(C)c2=O)c(F)cc1Cl (stereo not shown) [Compound 92, 2-{{2-Chloro-5-[3,6-dihydro-3-methyl-2,6-dioxo-4-(trifluoromethyl)-1(2H)-pyrimidinyl]-4-fluorophenyl}imino}-3-methyl-4-oxo-5-thiazolidineacetamide]
5.0: Herbicidal rating CYPIR ([1]; Rate 0.1250 kg/ha, rated 3 to 4 weeks after treatment) | GLXMAW rating ([5]; 0.2500 kg/ha) | CASOB herbicidal rating ([13]; rate 0.0315 kg/ha)
4.0: SAGPY herbicidal effect rating ([3]; 0.1250 kg/ha) | GALAP herbicidal rating ([8]; rate 0.0630 kg/ha)
6.0: ZEAMX rating ([6]; 0.2500 kg/ha)
3.0: Herbicidal rating CYPIR ([1]; Rate 0.0313 kg/ha, rated 3 to 4 weeks after treatment) | Herbicidal rating CYPIR ([1]; Rate 0.0625 kg/ha, rated 3 to 4 weeks after treatment) | GALAP herbicidal rating ([8]; rate 0.0315 kg/ha) | CASOB rating ([9]; 0.2500 kg/ha) | ABUTH rating ([11]; 0.0313 kg/ha) | CASOB herbicidal rating ([13]; rate 0.0158 kg/ha)
0.0: AMBEL herbicidal rating ([2]; rate 0.0158 kg/ha) | SAGPY herbicidal effect rating ([3]; 0.0313 kg/ha) | SAGPY herbicidal effect rating ([3]; 0.0625 kg/ha) | ECHCG rating ([4]; 0.0156 kg/ha) | ECHCG rating ([4]; 0.0313 kg/ha) | ECHCG rating ([4]; 0.0625 kg/ha) | ECHCG rating ([4]; 0.1250 kg/ha) | ECHCG rating ([4]; 0.2500 kg/ha) | GLXMAW rating ([5]; 0.0156 kg/ha) | GLXMAW rating ([5]; 0.0313 kg/ha) | GLXMAW rating ([5]; 0.0625 kg/ha) | ZEAMX rating ([6]; 0.0156 kg/ha) | ZEAMX rating ([6]; 0.0313 kg/ha) | ZEAMX rating ([6]; 0.0625 kg/ha) | ZEAMX rating ([6]; 0.1250 kg/ha) | IPOHE rating ([7]; 0.0156 kg/ha) | IPOHE rating ([7]; 0.0313 kg/ha) | IPOHE rating ([7]; 0.0625 kg/ha) | GALAP herbicidal rating ([8]; rate 0.0158 kg/ha) | CASOB rating ([9]; 0.0156 kg/ha) | CASOB rating ([9]; 0.0313 kg/ha) | CASOB rating ([9]; 0.0625 kg/ha) | TRZAWR rating ([10]; 0.0156 kg/ha) | TRZAWR rating ([10]; 0.0313 kg/ha) | TRZAWR rating ([10]; 0.0625 kg/ha) | TRZAWR rating ([10]; 0.1250 kg/ha) | ABUTH rating ([11]; 0.0156 kg/ha)
9.0: AMBEL herbicidal rating ([2]; rate 0.0315 kg/ha) | AMBEL herbicidal rating ([2]; rate 0.0630 kg/ha) | SAGPY herbicidal effect rating ([3]; 0.2500 kg/ha) | IPOHE rating ([7]; 0.1250 kg/ha) | IPOHE rating ([7]; 0.2500 kg/ha) | ABUTH rating ([11]; 0.0625 kg/ha) | ABUTH rating ([11]; 0.1250 kg/ha) | ABUTH rating ([11]; 0.2500 kg/ha) | MOOVA herbicidal effect rating ([12]; 0.0313 kg/ha) | MOOVA herbicidal effect rating ([12]; 0.0625 kg/ha) | MOOVA herbicidal effect rating ([12]; 0.1250 kg/ha) | MOOVA herbicidal effect rating ([12]; 0.2500 kg/ha) | CASOB herbicidal rating ([13]; rate 0.0630 kg/ha) | IPOHE herbicidal rating ([14]; rate 0.0158 kg/ha) | IPOHE herbicidal rating ([14]; rate 0.0315 kg/ha) | IPOHE herbicidal rating ([14]; rate 0.0630 kg/ha)
2.0: TRZAWR rating ([10]; 0.2500 kg/ha)
1.0: GLXMAW rating ([5]; 0.1250 kg/ha)
7.0: Herbicidal rating CYPIR ([1]; Rate 0.2500 kg/ha, rated 3 to 4 weeks after treatment)
